This note sets out measurements from ChEMBL document CHEMBL1141598, “Optimization of 1H-tetrazole-1-alkanenitriles as potent orally bioavailable growth hormone secretagogues” (Bioorg Med Chem Lett, 2008).

The target in data set [1] is T1, Growth hormone secretagogue receptor type 1 (Homo sapiens, UniProt Q92847). Briefly: Agonist activity at human GHS receptor expressed in H4 glioma cells. Type of data set: cell-based.
Data set [2] deals with T1, Growth hormone secretagogue receptor type 1. Briefly: Agonist activity at human GHS receptor expressed in H4 glioma cells assessed as intracellular calcium concentration by FLIPR assay. The class given is functional, cell-based.
In another data set the test system is Rattus norvegicus. Briefly: Increase in plasma GH level in acute anesthetized iv dosed Wistar rat model. Type of data set: functional.
The target of another data set is T2, Cytochrome P450 1A2 (Homo sapiens, UniProt P05177).
T2 sequence (P05177 whole entry): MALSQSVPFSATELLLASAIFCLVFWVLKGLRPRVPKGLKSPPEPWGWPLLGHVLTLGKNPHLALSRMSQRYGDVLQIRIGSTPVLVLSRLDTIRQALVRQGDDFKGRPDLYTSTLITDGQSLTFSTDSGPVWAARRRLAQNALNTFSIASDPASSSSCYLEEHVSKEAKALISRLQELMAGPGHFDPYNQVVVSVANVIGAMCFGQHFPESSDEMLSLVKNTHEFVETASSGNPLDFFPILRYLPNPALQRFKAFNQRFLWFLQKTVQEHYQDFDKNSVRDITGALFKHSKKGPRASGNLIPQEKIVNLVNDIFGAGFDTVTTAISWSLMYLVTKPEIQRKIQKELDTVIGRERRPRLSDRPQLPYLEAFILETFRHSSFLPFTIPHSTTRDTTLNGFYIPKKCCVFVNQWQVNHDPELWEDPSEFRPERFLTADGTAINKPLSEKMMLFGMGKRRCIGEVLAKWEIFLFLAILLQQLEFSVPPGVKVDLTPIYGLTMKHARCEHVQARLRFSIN
Briefly: Inhibition of CYP1A2. Type of data set: ADME.

The next data set deals with Cytochrome P450 2C9 (Homo sapiens, UniProt P11712). Briefly: Inhibition of CYP2C9. The class given is ADME.
Chain of Cytochrome P450 2C9 (P11712 whole entry): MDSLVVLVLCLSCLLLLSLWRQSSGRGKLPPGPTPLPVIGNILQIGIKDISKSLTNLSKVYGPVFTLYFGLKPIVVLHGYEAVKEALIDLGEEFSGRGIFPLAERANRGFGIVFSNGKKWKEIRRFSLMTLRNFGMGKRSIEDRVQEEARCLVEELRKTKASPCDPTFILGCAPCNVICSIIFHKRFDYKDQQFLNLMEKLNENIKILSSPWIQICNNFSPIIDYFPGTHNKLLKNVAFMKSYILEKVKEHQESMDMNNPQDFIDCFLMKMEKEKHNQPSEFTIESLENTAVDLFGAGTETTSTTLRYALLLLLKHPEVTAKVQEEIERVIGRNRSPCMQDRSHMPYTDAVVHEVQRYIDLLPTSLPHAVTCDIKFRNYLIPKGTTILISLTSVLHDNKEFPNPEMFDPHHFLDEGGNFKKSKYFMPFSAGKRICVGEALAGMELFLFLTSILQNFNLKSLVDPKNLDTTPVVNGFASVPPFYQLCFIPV
In the next data set the target is Cytochrome P450 2C19 (Homo sapiens, UniProt P33261). Briefly: Inhibition of CYP2C19. The class given is ADME.
Chain of Cytochrome P450 2C19 (P33261 whole entry): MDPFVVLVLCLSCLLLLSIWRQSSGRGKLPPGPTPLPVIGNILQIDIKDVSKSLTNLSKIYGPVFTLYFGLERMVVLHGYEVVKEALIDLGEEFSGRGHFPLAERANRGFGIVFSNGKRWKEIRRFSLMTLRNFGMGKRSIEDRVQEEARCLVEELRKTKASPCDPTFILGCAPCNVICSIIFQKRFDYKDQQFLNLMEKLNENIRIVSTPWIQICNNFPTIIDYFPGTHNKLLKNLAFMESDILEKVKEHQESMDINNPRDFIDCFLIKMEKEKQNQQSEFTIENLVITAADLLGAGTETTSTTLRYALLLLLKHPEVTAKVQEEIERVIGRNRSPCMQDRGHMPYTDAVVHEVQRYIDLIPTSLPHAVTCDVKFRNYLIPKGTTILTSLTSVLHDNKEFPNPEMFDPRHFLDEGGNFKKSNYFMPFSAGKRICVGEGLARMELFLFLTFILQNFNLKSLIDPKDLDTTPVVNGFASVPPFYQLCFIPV
The next data set addresses Cytochrome P450 2D6 (Homo sapiens, UniProt P10635). As to the kind of experiment: Inhibition of CYP2D6. The class given is ADME.
Data set [3] concerns the target T3, Cytochrome P450 3A4 (Homo sapiens, UniProt P08684). Briefly: Inhibition of CYP3A4 using 7-benzyloxyresorufin as a substrate. The class given is ADME.
Data set [4] deals with T3, Cytochrome P450 3A4. Briefly: Inhibition of CYP3A4 using 7-benzyloxy-4-trifluoromethylcoumarin as a substrate. Type of data set: ADME.
Data set [5] is described as follows: Oral bioavailability in rat. The conditions noted are these: in vivo. The class given is ADME, organism-based.
Data set [6] in a line: Oral bioavailability in dog. Type of data set: ADME, organism-based, Canis lupus familiaris. Particulars: in vivo.

The structures appear in SMILES notation.

T1 sequence (Q92847 whole entry): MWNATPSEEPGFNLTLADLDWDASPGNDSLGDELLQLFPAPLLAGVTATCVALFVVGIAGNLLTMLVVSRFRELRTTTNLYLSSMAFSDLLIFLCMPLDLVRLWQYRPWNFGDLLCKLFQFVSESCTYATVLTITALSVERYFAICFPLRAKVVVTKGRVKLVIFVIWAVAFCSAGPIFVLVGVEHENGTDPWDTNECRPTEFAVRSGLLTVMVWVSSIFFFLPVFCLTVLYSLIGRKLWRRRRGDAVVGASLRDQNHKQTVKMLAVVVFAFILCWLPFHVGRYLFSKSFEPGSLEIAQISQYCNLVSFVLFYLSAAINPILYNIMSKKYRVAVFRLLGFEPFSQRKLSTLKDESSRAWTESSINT
T3 sequence (P08684 whole entry): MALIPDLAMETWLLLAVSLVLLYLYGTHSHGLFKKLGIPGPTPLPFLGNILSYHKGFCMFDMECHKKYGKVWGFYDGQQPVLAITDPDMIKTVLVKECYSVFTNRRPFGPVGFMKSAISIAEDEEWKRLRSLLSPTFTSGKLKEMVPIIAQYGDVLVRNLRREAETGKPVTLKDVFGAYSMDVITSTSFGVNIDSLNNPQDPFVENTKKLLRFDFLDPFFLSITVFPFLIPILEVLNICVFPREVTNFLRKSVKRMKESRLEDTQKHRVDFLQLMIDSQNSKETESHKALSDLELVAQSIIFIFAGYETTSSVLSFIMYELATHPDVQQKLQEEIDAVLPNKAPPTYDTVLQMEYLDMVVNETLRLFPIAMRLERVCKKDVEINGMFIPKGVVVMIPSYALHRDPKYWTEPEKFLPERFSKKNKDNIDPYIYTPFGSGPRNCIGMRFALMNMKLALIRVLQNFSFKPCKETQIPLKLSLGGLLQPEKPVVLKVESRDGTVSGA
Chain of Cytochrome P450 2D6 (P10635 whole entry): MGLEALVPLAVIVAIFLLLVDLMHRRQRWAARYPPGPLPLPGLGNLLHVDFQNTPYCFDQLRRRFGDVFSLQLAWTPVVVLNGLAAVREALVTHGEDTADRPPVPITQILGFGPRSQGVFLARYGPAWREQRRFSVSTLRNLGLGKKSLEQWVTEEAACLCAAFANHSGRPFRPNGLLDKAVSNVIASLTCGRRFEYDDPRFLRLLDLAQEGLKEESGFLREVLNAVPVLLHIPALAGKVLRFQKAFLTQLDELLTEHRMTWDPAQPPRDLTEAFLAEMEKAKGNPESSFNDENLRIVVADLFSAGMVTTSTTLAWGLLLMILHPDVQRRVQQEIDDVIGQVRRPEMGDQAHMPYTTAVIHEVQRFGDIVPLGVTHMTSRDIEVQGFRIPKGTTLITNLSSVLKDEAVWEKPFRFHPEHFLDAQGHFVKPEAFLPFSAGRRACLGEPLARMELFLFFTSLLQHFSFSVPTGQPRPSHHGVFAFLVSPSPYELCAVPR

In general, Ki refers to a measure of affinity in units of concentration, obtained from inhibition or displacement. Higher therefore signals a looser hold on the target. The EC50 is the concentration at which the effect is half-maximal. `CC(C)(N)C(=O)N[C@H](COCc1ccccc1)c1nnn(C(CC#N)CCc2ccccc2)n1` (single isomer, unassigned; diastereomer 1): affinity in data set [1] was put at a Ki of 2560 nM. For the same compound, in [2], the 50% effective concentration (EC50) worked out at 150 nM.

Turning to `CC(C)(N)C(=O)N[C@H](COCc1ccccc1)c1nnnn1C(/C=C/c1ccccc1)CC#N` (single isomer, unassigned; diastereomer 1), affinity in data set [1] was put at a Ki of 12 nM. In addition, the ED250 in the data set on Rattus norvegicus was over 2 µmol/kg. For the same compound, the EC50 in data set [2] came to 0.5 nM.

Take `CC(C)(N)C(=O)N[C@H](COCc1ccccc1)c1nnnn1CCC(C#N)c1ccccc1` (mixture of isomers): the inhibition constant Ki in data set [1] is 611 nM. Moreover, in [2], the EC50 was 27 nM.

For `CC(C)(N)C(=O)N[C@H](COCc1ccccc1)c1nnn(C(/C=C/c2ccccc2)CC#N)n1` (single isomer, unassigned; diastereomer 2), the Ki in data set [1] was 2510 nM. In data set [2], the EC50 came to 202 nM.

In data set [1], `CC(C)(N)C(=O)N[C@H](COCc1ccccc1)c1nnnn1[C@@H](CC#N)COc1ccccc1O` registered a Ki of 240 nM. For the same compound, the concentration for a half-maximal effect (EC50) in data set [2] is 23 nM.

For the compound `CC(C)(N)C(=O)N[C@H](COCc1ccccc1)c1nnnn1CCC#N`, the ED250 in the data set with Rattus norvegicus came to 4.8 µmol/kg.

In turn, `CC(C)(N)C(=O)N[C@H](COCc1ccccc1)c1nnnn1C(CC#N)CCc1ccccc1` (single isomer, unassigned; diastereomer 2) yielded a Ki in data set [1] of 1380 nM. The EC50 in [2] amounted to 139 nM.

In data set [1], `CC(C)(N)C(=O)N[C@H](COCc1ccccc1)c1nnnn1C(/C=C/c1ccccc1)CC#N` (single isomer, unassigned; diastereomer 2) returned a Ki of 737 nM. For the same compound, in data set [2], the EC50 was found to be 62 nM.

As usually defined, the IC50 is the point on the concentration scale where inhibition reaches its midpoint. Turning to `CC(C)(N)C(=O)N[C@H](COCc1ccccc1)c1nnnn1[C@H](CC#N)COc1ccccc1O`, the IC50 against Cytochrome P450 1A2 was over 66000 nM; at Cytochrome P450 2C9 it was over 66000 nM; at Cytochrome P450 2C19, 42000 nM; on Cytochrome P450 2D6, 5100 nM; against Cytochrome P450 3A4 [3], 5500 nM; on Cytochrome P450 3A4 [4], 9800 nM. The same compound yielded an inhibition constant Ki in data set [1] of 5.7 nM. Moreover, the ED250 in the data set on Rattus norvegicus is under 0.15 µmol/kg. Further, in data set [2], the concentration giving a half-maximal response (EC50) is 0.3 nM.

Take `CC(C)(N)C(=O)N[C@H](COCc1ccccc1)c1nnnn1C(CC#N)COc1ccccc1F` (single isomer, unassigned; diastereomer 2): the affinity in data set [1] corresponds to a Ki of 696 nM. Besides, the 50% effective concentration (EC50) in [2] turned out to be 64 nM.

In data set [1], `CC(C)(N)C(=O)N[C@H](COCc1ccccc1)c1nnn(CC(C#N)Cc2ccccc2)n1` (mixture of isomers) came in with an inhibition constant Ki of over 5000 nM. Further, in [2], the EC50 is 2470 nM.

In turn, `CC(C)(N)C(=O)N[C@H](COCc1ccccc1)c1nnn(CCC(C#N)c2ccccc2)n1` (mixture of isomers) displayed an inhibition constant (Ki) in data set [1] of over 5000 nM. The EC50 in [2] worked out at 302 nM.

In [1], `CC(C)(N)C(=O)N[C@H](COCc1ccccc1)c1nnnn1[C@@H](CC#N)COc1ccccn1` had an inhibition constant Ki of 503 nM. The EC50 in data set [2] came to 19 nM.

For `CC(C)(N)C(=O)N[C@H](COCc1ccccc1)c1nnn(C(/C=C/c2ccccc2)CC#N)n1` (single isomer, unassigned; diastereomer 1), the Ki in data set [1] is 453 nM. Also, the concentration giving a half-maximal response (EC50) in data set [2] is 19 nM.

Turning to `CC(C)(N)C(=O)N[C@H](COCc1ccccc1)c1nnnn1[C@H](CC#N)COc1ccccc1`, in data set [1], the affinity, expressed as Ki, was 7.5 nM. Further, the ED250 with Rattus norvegicus was 0.87 µmol/kg. Further, the EC50 in data set [2] came out at 0.4 nM.

For the compound `CC(C)(N)C(=O)N[C@H](COCc1ccccc1)c1nnn(C(CC#N)CCc2ccccc2)n1` (single isomer, unassigned; diastereomer 2), the Ki in data set [1] was 3940 nM. Besides, the EC50 in data set [2] stood at 244 nM.

As for `CC(C)(N)C(=O)N[C@H](COCc1ccccc1)c1nnnn1C(CC#N)COc1ccccc1F` (single isomer, unassigned; diastereomer 1), the affinity in data set [1], expressed as Ki, was 18 nM. Besides, the 50% effective concentration (EC50) in data set [2] was 0.6 nM.

With `CC(C)(N)C(=O)N[C@H](COCc1ccccc1)c1nnnn1C(CC#N)CCc1ccccc1` (single isomer, unassigned; diastereomer 1), the Ki in data set [1] came out at 63 nM. Also, the ED250 in the data set with Rattus norvegicus was found to be 1.7 µmol/kg. In data set [2], the EC50 came out at 0.8 nM.

Consider `CC(C)(N)C(=O)N[C@H](COCc1ccccc1)c1nnnn1CC(C#N)Cc1ccccc1` (mixture of isomers), for which the affinity in [1], expressed as Ki, was 298 nM. Also, the half-maximal effective concentration (EC50) in data set [2] amounted to 22 nM.

Broadly, the bioavailability is the share of a dose that reaches the circulation, judged against a reference dose that is usually intravenous. Lower therefore signals little systemic uptake. As for `CC(C)(N)C(=O)N[C@H](COCc1ccccc1)c1nnnn1[C@H](CC#N)COc1ccccn1`, the 50% inhibitory concentration (IC50) is over 100000 nM against Cytochrome P450 1A2; over 100000 nM at Cytochrome P450 2C9; 33000 nM against Cytochrome P450 2C19; over 100000 nM against Cytochrome P450 2D6; 11000 nM at Cytochrome P450 3A4 [3]; 59000 nM on Cytochrome P450 3A4 [4]. Affinity in data set [1] was put at a Ki of 40 nM. Besides, the figures for the bioavailability in [5] and in [6] were 24% and 55%, respectively. In addition, the ED250 in the data set on Rattus norvegicus was 0.33 µmol/kg. Further, in data set [2], the EC50 was determined as 0.4 nM.

`CC(C)(N)C(=O)N[C@H](COCc1ccccc1)c1nnnn1[C@@H](CC#N)COc1ccccc1` registered an inhibitory constant (Ki) in [1] of 197 nM. Further, the 50% effective concentration (EC50) in data set [2] was determined as 19 nM.
